{
  "source": "paper PMC11811597",
  "about": "“Phenomics‐Based Discovery of Novel Orthosteric Choline Kinase Inhibitors” (Angewandte Chemie (International Ed. in English), 2025)",
  "target": "T1, EHMT2 (G9a) (Homo sapiens, UniProt Q96KQ7)",
  "T1 sequence (Q96KQ7 1-1210)": "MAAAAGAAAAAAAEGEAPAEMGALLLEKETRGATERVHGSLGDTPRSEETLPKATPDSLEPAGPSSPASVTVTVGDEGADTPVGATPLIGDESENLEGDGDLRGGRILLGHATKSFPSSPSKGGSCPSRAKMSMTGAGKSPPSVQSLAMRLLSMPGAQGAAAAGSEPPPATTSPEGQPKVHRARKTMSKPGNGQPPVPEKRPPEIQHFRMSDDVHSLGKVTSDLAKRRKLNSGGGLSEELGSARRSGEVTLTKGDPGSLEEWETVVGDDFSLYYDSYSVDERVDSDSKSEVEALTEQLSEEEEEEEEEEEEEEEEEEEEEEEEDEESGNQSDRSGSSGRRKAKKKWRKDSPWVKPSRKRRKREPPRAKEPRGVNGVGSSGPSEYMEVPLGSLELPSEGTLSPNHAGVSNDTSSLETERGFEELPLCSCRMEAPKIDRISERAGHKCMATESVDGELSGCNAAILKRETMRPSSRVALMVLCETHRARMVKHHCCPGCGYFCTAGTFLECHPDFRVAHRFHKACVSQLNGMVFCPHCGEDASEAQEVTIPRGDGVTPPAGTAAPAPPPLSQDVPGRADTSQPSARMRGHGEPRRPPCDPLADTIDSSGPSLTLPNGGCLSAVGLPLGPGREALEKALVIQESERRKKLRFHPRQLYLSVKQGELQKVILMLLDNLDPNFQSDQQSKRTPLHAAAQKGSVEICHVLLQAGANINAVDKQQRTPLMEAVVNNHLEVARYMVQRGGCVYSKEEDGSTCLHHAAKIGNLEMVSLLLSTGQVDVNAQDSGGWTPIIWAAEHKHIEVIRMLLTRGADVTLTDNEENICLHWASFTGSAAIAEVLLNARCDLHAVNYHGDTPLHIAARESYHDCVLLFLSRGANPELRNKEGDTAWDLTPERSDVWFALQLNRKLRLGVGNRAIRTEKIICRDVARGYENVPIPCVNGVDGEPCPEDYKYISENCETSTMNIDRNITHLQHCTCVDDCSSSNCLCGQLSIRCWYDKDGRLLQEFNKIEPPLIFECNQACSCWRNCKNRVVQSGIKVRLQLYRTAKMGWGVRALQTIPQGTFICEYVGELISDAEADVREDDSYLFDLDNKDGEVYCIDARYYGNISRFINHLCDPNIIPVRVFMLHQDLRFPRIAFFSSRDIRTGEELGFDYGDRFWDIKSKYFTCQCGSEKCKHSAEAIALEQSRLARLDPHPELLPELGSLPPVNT",
  "test": "Competitive affinity-based chemoproteomics (UNC0965 matrix), PBMC cell extract",
  "assay_type": "binding",
  "set-up": "endogenous in cells",
  "conditions": "20 µM competitor",
  "protocol": "described.[2] Lysates were precleared with bead slurry (100 μL) for 30 min at 4 °C and then treated with UNC0638 or UNC0737 (20 μM) or DMSO control for 30 min at 4 °C followed by incubation with affinity matrix for 2 h at 4 °C. Affinity matrices were washed with buffer A (5 mL) and proteins eluted with 100 μL of 2x Laemmli sample buffer, 100 mM DTT, in PBS and heating for 10 min at 90 °C.\nEluents (70 µL) were diluted in 0.1 M Tris (pH 7.8) to 200 µL, reduced with 5 mM DTT for 30 min at RT, and alkylated with 20 mM iodoacetamide for 30 min at RT in the dark. Proteins were precipitated by sequential addition of MeOH (600 µL), CHCl3 (150 µL) and H2O (450 µL), pelleted (17,000 × g, 5 min), washed with further MeOH (2 × 600 µL), and re-pelleted. Air dried pellets were resuspended in 50 μL 6 M urea (pH 7.8) by vortexing and then diluted with 250 μL H2O before adding 1 µg trypsin for overnight incubation at 37 °C. The digests were acidified with FA (1% v/v final concentration), desalted using SOLA HRP SPE Cartridges (Thermo Fisher), eluted with 69% v/v MeCN, 0.1% v/v FA in H2O (600 μL) and dried in vacuo. Dried peptides were stored at -20 °C before resuspension in 2% v/v MeCN, 0.1% v/v FA in H2O (20 μL) for LC-MS/MS analysis.\nLC-MS/MS Data Acquisition\nDigested samples were analysed by nano-UPLC–MS/MS using a Dionex Ultimate 3000 nano UPLC fitted with an EASY spray column (75 μm × 500 mm, 2 μm particle size, Thermo Scientific), coupled to an Orbitrap Q Exactive instrument. […]\nRaw data was processed using MaxQuant[3] version 2.0.1.0 and the reference complete human proteome FASTA file (UniProt, downloaded 05.08.21). Label Free Quantification (LFQ) and Match Between Runs were selected; Cysteine carbamidomethylation was selected as a fixed modification, and methionine oxidation and asparagine deamidation as variable modifications. Default settings for identification and quantification were used. […]\nmode selected for both identification and quantification of proteins (razor peptides are uniquely assigned to protein groups and not to individual proteins).",
  "data": [
    {"smiles": "COc1cc2c(NC3CCN(C(C)C)CC3)nc(C3CCCCC3)nc2cc1OCCCN1CCCC1", "note": "[UNC0638]", "values": [
      {"measurement": "EHMT2 (G9a) binding to the matrix", "result": "reduced binding to the matrix"}
    ]}
  ]
}
